# In patent US20220073536A1 (Rigel Pharmaceuticals, Inc., priority 2003, published 2022):
# System: cultured human mast cells (CHMC)
# Experiment: CHMC low cell density IgE activation: tryptase assay
# Type: cell-based
# Conditions: Homo sapiens, Mast cell, low cell density CHMC, IgE activation, tryptase release, 3 pt; read-out: LD Tryptase, CHMC, IgE, 3 pt
# Procedure: Inhibition of degranulation was measured at both low and high cell density by quantifying the release of the granule specific factors tryptase, histamine and hexosaminidase. Inhibition of release and/or synthesis of lipid mediators was assessed by measuring the release of leukotriene LTC4 and inhibition of release and/or synthesis of cytokines was monitored by quantifying TNF-α, IL-6 and IL-13. Tryptase and hexosaminidase were quantified using fluorogenic substrates as described in their respective examples. […] The protocols of the various assays are provided below.
# Pellet CHMC cells (980 rpm, 10 min) and resuspend in pre-warmed MT. Add 65 ul of cells to each 96-well plate. Depending on the degranulation activity for each particular CHMC donor, load 1000-1500 cells/well. Mix four times followed by a 1 hr incubation at 37° C. […] Stimulate cells by adding 25 ul of 6× anti-IgE solution to the appropriate plates. Add 25 ul MT to un-stimulated control wells. Mix twice following addition of the anti-IgE. Incubate at 37° C. for 30 minutes. […] Spin plates at 1000 rpm for 10 min to pellet cells. Transfer 25 ul of supernatant to a 96-well black bottom plate and add 100 ul of freshly diluted tryptase substrate solution to each well. Incubate plates at room temperature for 30 min.
row,Compound,IC50 [µM]
1,COc1ccc(Nc2ncc(F)c(Nc3ccc4c(c3)NC(=O)C(C)S4(=O)=O)n2)cc1F (racemic) [Compound 296],< 10
2,COc1ccc(Nc2ncc(F)c(Nc3ccc4c(c3)NC(=O)C(C)S4)n2)cc1F (racemic) [Compound 298],< 10
3,COc1ccc(Nc2ncc(F)c(Nc3ccc4c(c3)NC(=O)[C@@H](C)O4)n2)cc1Cl [Compound 211],< 10
4,COc1cc(C)c(Nc2ncc(F)c(Nc3ccc4c(c3)NC(=O)[C@@H](C)O4)n2)cc1Cl [Compound 213],< 10
5,"COc1cc(Nc2ncc(F)c(Nc3ccc4c(c3)NC(=O)C(C)S4(=O)=O)n2)cc(OC)c1 (stereo not drawn) [Compound 263, N2-(3,5-Dimethoxyphenyl)-N4-(dioxide-2-methyl-1,1,3-trioxo-4H-benzo[1,4]thiazin-6-yl)-5-fluoro-2,4-pyrimidinediamine]",< 10
6,Cc1cc(C)cc(Nc2ncc(F)c(Nc3ccc4c(c3)NC(=O)C(C)S4(=O)=O)n2)c1 (stereo not drawn) [Compound 264],< 10
7,CC1C(=O)Nc2cc(Nc3nc(Nc4ccc5cn[nH]c5c4)ncc3F)ccc2S1(=O)=O (stereo not drawn) [Compound 265],< 10
8,COc1cc(Nc2ncc(F)c(Nc3ccc4c(c3)NC(=O)C(C)S4(=O)=O)n2)cc(OC)c1OC (stereo not drawn) [Compound 266],< 10

# Same assay, conditions: Homo sapiens, Mast cell, low cell density CHMC, IgE activation, tryptase release, 8 pt; read-out: LD Tryptase, CHMC, IgE, 8 pt
row,Compound,IC50 [µM]
1,CC1Sc2ccc(Nc3nc(Nc4cccc(O)c4)ncc3F)cc2NC1=O (racemic) [Compound 282],< 10
2,COc1ccc(Nc2ncc(F)c(Nc3ccc4c(c3)NC(=O)C(C)S4(=O)=O)n2)cc1Cl (racemic) [Compound 286],< 10
3,COc1ccc(Nc2ncc(F)c(Nc3ccc4c(c3)NC(=O)C(C)S4(=O)=O)n2)cc1F (racemic) [Compound 296],< 10
4,COc1ccc(Nc2ncc(F)c(Nc3ccc4c(c3)NC(=O)C(C)S4)n2)cc1F (racemic) [Compound 298],< 10
5,C[C@@H]1Oc2ccc(Nc3nc(Nc4ccc5cn[nH]c5c4)ncc3F)cc2NC1=O [Compound 200],< 10
6,C[C@@H]1Oc2ccc(Nc3nc(Nc4ccc5cnn(C)c5c4)ncc3F)cc2NC1=O [Compound 201],< 10
7,"Cc1cc(C)cc(Nc2ncc(F)c(Nc3ccc4c(c3)NC(=O)[C@H](C)O4)n2)c1 [Compound 202, (S)-N2-(3,5-Dimethylphenyl)-5-fluoro-N4-(2-methyl-3-oxo-2H,4H-benz[1,4]oxazin-6-yl)-2,4-pyrimidinediamine]",< 10
8,"COc1cc(Nc2ncc(F)c(Nc3ccc4c(c3)NC(C)(C)CO4)n2)cc(OC)c1 [Compound 203, N4-(3,4-Dihydro-3,3-dimethyl-2H,4H-benz[1,4]oxazin-6-yl)-N2-(3,5-dimethoxyphenyl)-5-fluoro-2,4-pyrimidinediamine]",< 10
9,"Cc1cc(C)cc(Nc2ncc(F)c(Nc3ccc4c(c3)NC(=O)[C@@H](C)O4)n2)c1 [Compound 204, (R)-N2-(3,5-Dimethylphenyl)-5-fluoro-N4-(2-methyl-3-oxo-2H,4H-benz[1,4]oxazin-6-yl)-2,4-pyrimidinediamine]",< 10
10,COc1ccc(Nc2ncc(F)c(Nc3ccc4c(c3)NC(=O)[C@@H](C)O4)n2)cc1Cl [Compound 207],< 10
11,C[C@H]1Oc2ccc(Nc3nc(Nc4ccc5cnn(C)c5c4)ncc3F)cc2NC1=O [Compound 210],< 10
12,COc1cc(C)c(Nc2ncc(F)c(Nc3ccc4c(c3)NC(=O)[C@@H](C)O4)n2)cc1Cl [Compound 213],< 10
13,"COc1cc(Nc2ncc(F)c(Nc3ccc4c(c3)NC(=O)C(C)S4(=O)=O)n2)cc(OC)c1 (stereo not drawn) [Compound 263, N2-(3,5-Dimethoxyphenyl)-N4-(dioxide-2-methyl-1,1,3-trioxo-4H-benzo[1,4]thiazin-6-yl)-5-fluoro-2,4-pyrimidinediamine]",< 10
14,Cc1cc(C)cc(Nc2ncc(F)c(Nc3ccc4c(c3)NC(=O)C(C)S4(=O)=O)n2)c1 (stereo not drawn) [Compound 264],< 10
15,CC1C(=O)Nc2cc(Nc3nc(Nc4ccc5cn[nH]c5c4)ncc3F)ccc2S1(=O)=O (stereo not drawn) [Compound 265],< 10
16,COc1cc(Nc2ncc(F)c(Nc3ccc4c(c3)NC(=O)C(C)S4(=O)=O)n2)cc(OC)c1OC (stereo not drawn) [Compound 266],< 10
17,COc1cc(Nc2ncc(F)c(Nc3ccc4c(c3)NC(=O)C(C)(C)S4(=O)=O)n2)cc(OC)c1 [Compound 267],< 10
18,Cc1cc(C)cc(Nc2ncc(F)c(Nc3ccc4c(c3)NC(=O)C(C)(C)S4(=O)=O)n2)c1 [Compound 268],< 10
19,COc1cc(Nc2ncc(F)c(Nc3ccc4c(c3)NC(=O)C(C)(C)S4(=O)=O)n2)cc(OC)c1OC [Compound 269],< 10
20,COc1cc(Nc2ncc(F)c(Nc3ccc4c(c3)NC(=O)C(C)S4)n2)cc(OC)c1 (stereo not drawn) [Compound 270],< 10
21,Cc1cc(C)cc(Nc2ncc(F)c(Nc3ccc4c(c3)NC(=O)C(C)S4)n2)c1 (stereo not drawn) [Compound 271],< 10
22,COc1cc(Nc2ncc(F)c(Nc3ccc4c(c3)NC(=O)C(C)S4)n2)cc(OC)c1OC (stereo not drawn) [Compound 272],< 10
23,CC1(C)C(=O)Nc2cc(Nc3nc(Nc4ccc5cn[nH]c5c4)ncc3F)ccc2S1(=O)=O [Compound 273],< 10
24,CC1(C)C(=O)Nc2cc(Nc3nc(Nc4ccc5[nH]ncc5c4)ncc3F)ccc2S1(=O)=O [Compound 274],< 10
25,CC1Sc2ccc(Nc3nc(Nc4ccc5cn[nH]c5c4)ncc3F)cc2NC1=O (stereo not drawn) [Compound 277],< 10
26,CC1Sc2ccc(Nc3nc(Nc4ccc5[nH]ncc5c4)ncc3F)cc2NC1=O (stereo not drawn) [Compound 278],< 10

# Same assay, conditions: Homo sapiens, Mast cell, low cell density, IgE activation, 3 pt; read-out: LD Tryptase, CHMC, IgE, 3 pt
row,Compound,IC50 [µM]
1,CC1C(=O)Nc2cc(-c3nc(Nc4ccc5oncc5c4)nc(N)c3F)ccc2S1(=O)=O (racemic) [Compound 929],< 10

# Same assay, conditions: Homo sapiens, Mast cell, low cell density, IgE activation, 8 pt; read-out: LD Tryptase, CHMC, IgE, 8 pt
row,Compound,IC50 [µM]
1,CC1Sc2ccc(Nc3nc(Nc4ccc5oncc5c4)ncc3F)cc2NC1=O (racemic) [Compound 931],< 10

# Same assay, conditions: low cell density CHMC, IgE activation, tryptase release, 3 pt; read-out: LD Tryptase, CHMC, IgE, 3 pt
row,Compound,IC50 [µM]
1,"CC1Sc2ccc(Nc3nc(Cl)ncc3F)cc2NC1=O (racemic) [Compound 314, racemic-N2-Chloro-5-fluoro-N4-(2-methyl-3-oxo-2H,4H-benzo[1,4]thiazin-6-yl)-4-pyrimidineamine]",< 10
2,"CC1C(=O)Nc2cc(Nc3nc(Cl)ncc3F)ccc2S1(=O)=O (racemic) [Compound 317, racemic-N2-Chloro-5-fluoro-N4-(2-methyl-1,1,3-trioxo-2H,4H-benzo[1,4]thiazin-6-yl)-4-pyrimidineamine]",> 10

# Same assay, conditions: low cell density CHMC, IgE activation, tryptase release, 8 pt; read-out: LD Tryptase, CHMC, IgE, 8 pt
row,Compound,IC50 [µM]
1,"CC1C(=O)Nc2cc(Nc3nc(Nc4cccc(O)c4)ncc3F)ccc2S1(=O)=O (racemic) [Compound 284, racemic-5-Fluoro-N2-[3-hydoxyphenyl]-N4-(2-methyl-1,1,3-trioxo-2H,4H-benzo[1,4]thiazin-6-yl)-2,4-pyrimidinediamine]",< 10
2,"CNC(=O)COc1cccc(Nc2ncc(F)c(Nc3ccc4c(c3)NC(=O)C(C)S4(=O)=O)n2)c1 (racemic) [Compound 285, racemic-5-Fluoro-N2-[3-(N-methylamino)carbonylmethyleneoxyphenyl]-N4-(2-methyl-1,1,3-trioxo-2H,4H-benzo[1,4]thiazin-6-yl)-2,4-pyrimidinediamine]",< 10
3,"C[C@H]1Oc2ccc(Nc3nc(Nc4cc5c6c(c4)c(CCO)cn6CCO5)ncc3F)cc2NC1=O [Compound 205, (R)-5-Fluoro-N2-[6-(2-hydroxyethyl)-2,3-dihydropyrrolo[1,2,3-d,e]benzoxazin-8-yl]-N4-(2-methyl-3-oxo-2H,4H-benz[1,4]oxazin-6-yl)-2,4-pyrimidinediamine]",< 10
4,"CC1(C)COc2ccc(Nc3nc(Nc4cc5c6c(c4)c(CCO)cn6CCO5)ncc3F)cc2N1 [Compound 206, N4-(3,4-Dihydro-3,3-dimethyl-2H,4H-benz[1,4]oxazin-6-yl)-5-fluoro-N2-[6-(2-hydroxyethyl)-2,3-dihydropyrrolo[1,2,3-d,e]benzoxazin-8-yl]-2,4-pyrimidinediamine]",< 10
5,"CNC(=O)COc1cccc(Nc2ncc(F)c(Nc3ccc4c(c3)NC(=O)C(C)(C)S4(=O)=O)n2)c1 [Compound 275, N4-(2,2-Dimethyl-1,1,3-trioxo-4H-benzo[1,4]thiazin-6-yl)-5-fluoro-N2-[3-(N-methylamino)carbonylmethyleneoxyphenyl]-2,4-pyrimidinediamine]",< 10
6,COc1ccc(Nc2ncc(F)c(Nc3ccc4c(c3)NC(=O)C(C)(C)S4(=O)=O)n2)cc1Cl [Compound 276],< 10
7,"CNC(=O)COc1cccc(Nc2ncc(F)c(Nc3ccc4c(c3)NC(=O)C(C)S4)n2)c1 (stereo not drawn) [Compound 279, 5-Fluoro-N2-[3-(N-methylamino)carbonylmethyleneoxyphenyl]-N4-(2-methyl-3-oxo-2H,4H-benzo[1,4]thiazin-6-yl)-2,4-pyrimidinediamine]",< 10

# Same assay, conditions: low cell density CHMC, IgE activation, tryptase, 3 pt; read-out: LD Tryptase, CHMC, IgE, 3 pt
row,Compound,IC50 [µM]
1,"5-Fluoro-N2,N4-bis (4-[N-[methoxycarbonylmethylene]aminocarbonyl]phenyl)-2,4-pyrimidinediamine [Compound 1332]",< 10
2,"5-Fluoro-N2-[2- (N-methylamino)carbonylindol-7-yl]-N4-[3,4-(tetrafluoroethylenedioxy)phenyl]-2,4-pyrimidinediamine [Compound 365]",< 10

# Same assay, conditions: low cell density CHMC, IgE activation, tryptase, 8 pt; read-out: LD Tryptase, CHMC, IgE, 8 pt
row,Compound,IC50 [µM]
1,"5-Fluoro-N2,N4-bis (4-[N-[methoxycarbonylmethylene]aminocarbonyl]phenyl)-2,4-pyrimidinediamine [Compound 1332]",< 10
2,"5-Fluoro-N2- (3-hydroxyphenyl)-N4- (4-[N-[methoxycarbonylmethylene]aminocarbonyl]phenyl)-2,4-pyrimidinediamine [Compound 1328]",< 10
3,"NC1CCOc2ccc(Nc3nc(Nc4ccc(-c5cnco5)cc4)ncc3F)cc21 (racemic) [Compound 1293, (R,S)-N4-[4-Amino-3,4-dihydro-2H-1-benzopyran-6-yl]-5-fluoro-N2-[4-(oxazol-5-yl)phenyl]-2,4-pyrimidinediamine]",< 10
4,"N[C@@H]1CCOc2ccc(Nc3nc(Nc4ccc(-c5ncco5)cc4)ncc3F)cc21 (racemic) [Compound 1294, (R,S)-N4-[4-Amino-3,4-dihydro-2H-1-benzopyran-6-yl]-5-fluoro-N2-[4-(oxazol-2-yl)phenyl]-2,4-pyrimidinediamine]",< 10
